Several values for one entry are separate records, joined by “and”; a condition that tells them apart may be missing. Identical values can stand only once.
What was measured:
Format in all cases: cell-based
DRD2 (D2 long receptor) = DRD2 (D2 long receptor) (Homo sapiens, UniProt P14416); experiment: β-arrestin2 recruitment (Tango), HTLA cells; details: for response, Fig_S11e dose-response source data: replicate values; for Response, Fig_S11c dose-response: individual replicates
DRD3 = DRD3 (Homo sapiens, UniProt P35462); experiment: β-arrestin2 recruitment (Tango); details: DRD3, Tango
DRD4 (D4.4 variant) = target: T1, DRD4 (D4.4 variant) (Homo sapiens, UniProt P21917); experiment: β-arrestin2 recruitment (Tango); details: DRD4; Tango; read-out: EC50 ± SEM
T1 sequence (P21917 1-419): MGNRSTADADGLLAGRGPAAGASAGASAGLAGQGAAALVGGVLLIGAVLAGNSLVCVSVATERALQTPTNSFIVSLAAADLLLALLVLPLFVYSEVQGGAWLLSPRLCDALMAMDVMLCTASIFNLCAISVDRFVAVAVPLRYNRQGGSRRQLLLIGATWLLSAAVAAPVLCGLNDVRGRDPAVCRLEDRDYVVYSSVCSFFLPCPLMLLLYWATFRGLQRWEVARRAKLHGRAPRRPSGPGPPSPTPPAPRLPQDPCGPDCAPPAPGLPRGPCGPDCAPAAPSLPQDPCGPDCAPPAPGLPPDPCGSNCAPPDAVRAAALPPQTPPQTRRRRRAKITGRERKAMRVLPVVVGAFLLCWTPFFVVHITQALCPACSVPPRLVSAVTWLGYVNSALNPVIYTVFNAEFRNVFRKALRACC

DRD2 F1103.28A = DRD2 F1103.28A (Homo sapiens, UniProt P14416, F110A); experiment: β-arrestin2 recruitment (Tango), mutant; set-up: expressed in transfected cells; host or cells: HEK293T (ATCC CRL-11268)
Chain of DRD2 F1103.28A (P14416 whole entry F110A): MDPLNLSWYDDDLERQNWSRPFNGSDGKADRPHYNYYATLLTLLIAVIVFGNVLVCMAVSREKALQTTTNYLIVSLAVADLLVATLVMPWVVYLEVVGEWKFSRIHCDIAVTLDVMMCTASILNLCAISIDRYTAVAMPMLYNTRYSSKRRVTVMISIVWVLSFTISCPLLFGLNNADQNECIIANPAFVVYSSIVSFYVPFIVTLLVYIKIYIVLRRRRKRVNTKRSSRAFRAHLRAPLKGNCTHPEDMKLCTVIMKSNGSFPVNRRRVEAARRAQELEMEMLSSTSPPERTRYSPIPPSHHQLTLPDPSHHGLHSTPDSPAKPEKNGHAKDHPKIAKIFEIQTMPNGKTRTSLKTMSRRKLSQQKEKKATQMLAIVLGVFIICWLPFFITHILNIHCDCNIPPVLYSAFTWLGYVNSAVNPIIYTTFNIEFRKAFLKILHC

Chain of DRD2 (D2 long receptor) (P14416 whole entry): as the sequence (P14416 whole entry F110A) above, with A110F counted along it
Chain of DRD3 (P35462 whole entry): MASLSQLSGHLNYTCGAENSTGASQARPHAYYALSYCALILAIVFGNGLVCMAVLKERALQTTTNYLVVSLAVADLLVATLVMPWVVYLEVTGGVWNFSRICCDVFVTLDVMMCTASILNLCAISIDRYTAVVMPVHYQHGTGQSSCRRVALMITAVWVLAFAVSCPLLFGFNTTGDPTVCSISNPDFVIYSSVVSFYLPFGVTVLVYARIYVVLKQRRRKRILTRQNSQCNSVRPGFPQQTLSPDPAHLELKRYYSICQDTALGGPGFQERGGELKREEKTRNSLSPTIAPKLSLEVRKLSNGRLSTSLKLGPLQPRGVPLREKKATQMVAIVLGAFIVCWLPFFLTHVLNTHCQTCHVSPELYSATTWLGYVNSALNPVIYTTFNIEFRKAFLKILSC

CCOc1cccc2cc(C(C)NCC3(O)CCCCC3)oc12 (stereo not shown) [O4LE6]
response, Fig_S11e dose-response source data (DRD2 (D2 long receptor); Log[Drug] -8.52): 4.375 and 3.995 and 5.741 and 6.567 and 6.611 and 6.201 and 5.912 and 5.884 and 4.408
response, Fig_S11e dose-response source data (DRD2 (D2 long receptor); Log[Drug] -9): 3.657 and 3.173 and 3.675 and 2.9749 and 3.073 and 3.47 and 2.665 and 3.951 and 5.063
response, Fig_S11e dose-response source data (DRD2 (D2 long receptor); Log[Drug] -9.52): 2.783 and 2.8126 and 2.809 and 2.846 and 2.583 and 2.72 and 1.765 and 1.2028 and 2.471
response, Fig_S11e dose-response source data (DRD2 (D2 long receptor); Log[Drug] -10): 3.027 and 2.494 and 2.707 and 2.723 and 2.793 and 2.57 and 1.765 and 1.586 and 1.567
response, Fig_S11e dose-response source data (DRD2 (D2 long receptor); Log[Drug] -10.52): 2.869 and 2.577 and 2.7076 and 2.741 and 2.285 and 2.767 and 1.576 and 1.95 and 2.499
response, Fig_S11e dose-response source data (DRD2 (D2 long receptor); Log[Drug] -11): 2.286 and 2.31 and 2.497 and 2.358 and 2.303 and 2.397 and 3.984 and 1.567 and 2.499
response, Fig_S11e dose-response source data (DRD2 (D2 long receptor); Log[Drug] -11.52): 2.417 and 3.403 and 2.6551 and 2.344 and 2.523 and 2.357 and 1.752 and 2.8723 and 2.669
response, Fig_S11e dose-response source data (DRD2 (D2 long receptor); Log[Drug] -12): 2.236 and 2.366 and 2.369 and 2.676 and 2.167 and 2.127 and 2.148 and 1.023 and 3.799
Emax (DRD2 (D2 long receptor); HTLA, read-out: Emax relative to quinpirole response, DRD2, Tango): 105%
β-arrestin2 recruitment response at DRD2 (source data, replicate values) (DRD2 (D2 long receptor); Log[Drug] -6.52): 78.7922
Response, Fig_S11c dose-response (DRD2 (D2 long receptor); Log[Drug] -6.52): 78.7922
β-arrestin2 recruitment response at DRD2 (source data, replicate values) (DRD2 (D2 long receptor); Log[Drug] -7): 72.0078 and 74.6368 and 66.9645 and 59.2359 and 63.6719 and 58.7266 and 59.326 and 73.941 and 65.8379
Response, Fig_S11c dose-response (DRD2 (D2 long receptor); Log[Drug] -7): 72.0078 and 74.6368 and 66.9645 and 59.2359 and 63.6719 and 58.7266 and 59.326 and 73.941 and 65.8379
β-arrestin2 recruitment response at DRD2 (source data, replicate values) (DRD2 (D2 long receptor); Log[Drug] -7.52): 37.8418 and 44.9592 and 58.6118 and 43.0054 and 55.0074 and 48.586 and 48.419 and 72.5528 and 64.0624
Response, Fig_S11c dose-response (DRD2 (D2 long receptor); Log[Drug] -7.52): 37.8418 and 44.9592 and 58.6118 and 43.0054 and 55.0074 and 48.586 and 48.419 and 72.5528 and 64.0624
β-arrestin2 recruitment response at DRD2 (source data, replicate values) (DRD2 (D2 long receptor); Log[Drug] -8): 15.3268 and 15.1148 and 16.7449 and 27.4037 and 26.6311 and 23.8074 and 19.9269 and 24.9446 and 21.2413
Response, Fig_S11c dose-response (DRD2 (D2 long receptor); Log[Drug] -8): 15.3268 and 15.1148 and 16.7449 and 27.4037 and 26.6311 and 23.8074 and 19.9269 and 24.9446 and 21.2413
β-arrestin2 recruitment response at DRD2 (source data, replicate values) (DRD2 (D2 long receptor); Log[Drug] -8.52): 4.375 and 3.995 and 5.741 and 6.567 and 6.611 and 6.201 and 5.912 and 5.884 and 4.408
Response, Fig_S11c dose-response (DRD2 (D2 long receptor); Log[Drug] -8.52): 4.375 and 3.995 and 5.741 and 6.567 and 6.611 and 6.201 and 5.912 and 5.884 and 4.408
β-arrestin2 recruitment response at DRD2 (source data, replicate values) (DRD2 (D2 long receptor); Log[Drug] -9): 3.657 and 3.173 and 3.675 and 2.9749 and 3.073 and 3.47 and 2.665 and 3.951 and 5.063
Response, Fig_S11c dose-response (DRD2 (D2 long receptor); Log[Drug] -9): 3.657 and 3.173 and 3.675 and 2.9749 and 3.073 and 3.47 and 2.665 and 3.951 and 5.063
β-arrestin2 recruitment response at DRD2 (source data, replicate values) (DRD2 (D2 long receptor); Log[Drug] -9.52): 2.783 and 2.8126 and 2.809 and 2.846 and 2.583 and 2.72 and 1.765 and 1.2028 and 2.471
Response, Fig_S11c dose-response (DRD2 (D2 long receptor); Log[Drug] -9.52): 2.783 and 2.8126 and 2.809 and 2.846 and 2.583 and 2.72 and 1.765 and 1.2028 and 2.471
β-arrestin2 recruitment response at DRD2 (source data, replicate values) (DRD2 (D2 long receptor); Log[Drug] -10): 3.027 and 2.494 and 2.707 and 2.723 and 2.793 and 2.57 and 1.765 and 1.586 and 1.567
Response, Fig_S11c dose-response (DRD2 (D2 long receptor); Log[Drug] -10): 3.027 and 2.494 and 2.707 and 2.723 and 2.793 and 2.57 and 1.765 and 1.586 and 1.567
β-arrestin2 recruitment response at DRD2 (source data, replicate values) (DRD2 (D2 long receptor); Log[Drug] -10.52): 2.869 and 2.577 and 2.7076 and 2.741 and 2.285 and 2.767 and 1.576 and 1.95 and 2.499
Response, Fig_S11c dose-response (DRD2 (D2 long receptor); Log[Drug] -10.52): 2.869 and 2.577 and 2.7076 and 2.741 and 2.285 and 2.767 and 1.576 and 1.95 and 2.499
β-arrestin2 recruitment response at DRD2 (source data, replicate values) (DRD2 (D2 long receptor); Log[Drug] -11): 2.286 and 2.31 and 2.497 and 2.358 and 2.303 and 2.397 and 3.984 and 1.567 and 2.499
Response, Fig_S11c dose-response (DRD2 (D2 long receptor); Log[Drug] -11): 2.286 and 2.31 and 2.497 and 2.358 and 2.303 and 2.397 and 3.984 and 1.567 and 2.499
β-arrestin2 recruitment response at DRD2 (source data, replicate values) (DRD2 (D2 long receptor); Log[Drug] -11.52): 2.417 and 3.403 and 2.6551 and 2.344 and 2.523 and 2.357 and 1.752 and 2.8723 and 2.669
Response, Fig_S11c dose-response (DRD2 (D2 long receptor); Log[Drug] -11.52): 2.417 and 3.403 and 2.6551 and 2.344 and 2.523 and 2.357 and 1.752 and 2.8723 and 2.669
β-arrestin2 recruitment response at DRD2 (source data, replicate values) (DRD2 (D2 long receptor); Log[Drug] -12): 2.236 and 2.366 and 2.369 and 2.676 and 2.167 and 2.127 and 2.148 and 1.023 and 3.799
Response, Fig_S11c dose-response (DRD2 (D2 long receptor); Log[Drug] -12): 2.236 and 2.366 and 2.369 and 2.676 and 2.167 and 2.127 and 2.148 and 1.023 and 3.799
EC50 (DRD3; read-out: EC50 ± SEM): 0.7085 ± 0.0063 µM
Emax (DRD3; read-out: Emax relative to quinpirole response): 15.8%
EC50 (DRD4 (D4.4 variant)): > 10 µM
EC50 (DRD2 F1103.28A): > 10 µM

From article PMC7044277 (Nature Communications, 2020)
